# Assay results published in patent US20050101783A1, “N-(heterocycle-methyl)alkylamine derivative, process for producing the same, and bactericide” (priority 2000, published 2005).
# Tests used:
# cucumber gray mold = experiment: Preventive effect test of cucumber gray mold (wettable powder sprayed on potted cucumber, preventive value); assay type: in vivo; conditions: wettable powder suspended at 250 mg/l, sprayed on potted cucumber at 100 l/10 a; morbidity investigated 4th to 6th day after inoculation
# Description: (Preventive Effect Test of Cucumber Gray Mold)
# The wettable powders obtained by using each compound were diluted with water and were suspended at a predetermined concentration (250 mg/l) and the solution was sprayed over the first to second leaf stage-cucumber (variety: “Sagamihanpakufushinari”) cultivated by using a square plastic pot (size: 6.4 cm×6.4 cm) at a rate of 100 1/10 a.
# After the sprayed leaves were air-dried, a paper disk where the solution of the spore of the gray mold suspended with water was impregnated was put on the aforementioned sprayed leaves, and the leaves were contracted in a glass greenhouse (temperature: 20 to 24° C. and relative humidity: 20 to 70 RH). The morbidity rate was investigated based on the following investigation standard on 4th to 6th day after the inoculation and the preventive value was calculated according to the following formula 2.
# [1] = tested on: Erysiphe graminis f. sp tritici; experiment: Preventive effect test of wheat powdery mildew (wettable powder sprayed on potted wheat, preventive value); assay type: in vivo; conditions: wettable powder suspended at 250 mg/l, sprayed on potted wheat at 100 l/10 a; morbidity investigated 9th to 14th day after inoculation
# Description: (Preventive Effect Test of Erysiphe graminis f. sp […])
# The wettable powders obtained by using each compound were diluted with water and were suspended at a predetermined concentration (250 mg/l) and the solution was sprayed over the first to second leaf stage-wheat (variety. Agriculture and Forestry No. 64) cultivated by using a square plastic pot (size: 6.4 cm×6.4 cm) at a rate of 100 1/10 a (are).
# After the sprayed leaves were air-dried, the suspension of the spore of Erysiphe graminis f. sp tritici germ sampled from the contracted leaves were sprayed and inoculated over the sprayed leaf after air-dried, the leaves were kept at 20 to 24° C. under a high-humidity condition for 24 hours, then, the leaves were subjected to still standing in a greenhouse (temperature: 20 to 24° C. and relative humidity: 20 to 70 RH). The morbidity rate was investigated based on the following investigation standard on 9th to 14th day after the inoculation and the preventive value was calculated according to the following formula 1.
SMILES,Preventive Value (%) (cucumber gray mold),Preventive Value (%) [1] [%]
CN(Cc1ccc(Cl)nc1)CC(C)(C)Cc1ccc(Cl)cc1Cl [Compound I-31],100,
Cc1ncc(CN(C)CC(C)(C)Cc2ccc(C(C)(C)C)cc2)cn1 [Compound I-21],100,
CN(Cc1ccc(Cl)nc1)CC(C)(C)Cc1cccc(OC(F)(F)F)c1 [Compound I-46],100,
CN(Cc1ccc(Cl)nc1)CC(C)(C)Cc1cc(Cl)ccc1Cl [Compound I-32],100,
CN(Cc1ccc(Cl)nc1)CC(C)(C)CCc1ccc(C(C)(C)C)cc1 [Compound I-51],100,
CN(Cc1cccnc1Cl)CC(C)(C)Cc1ccc(C(C)(C)C)cc1 [Compound I-20],100,
CC(CCCC1CCC(C(C)(C)C)CC1)CN(C)Cc1ccc(Cl)nc1 (stereo not shown) [Compound I-66],100,
CN(Cc1cccnc1)CC(C)(C)Cc1ccc(C(C)(C)C)cc1 [Compound I-16],100,
CC(C)Oc1cccc(CC(C)(C)CN(C)Cc2ccc(Cl)nc2)c1 [Compound I-27],,100
CC(CCc1ccc(C(C)(C)C)cc1)CN(C)Cc1ccc(Cl)nc1 (stereo not shown) [Compound I-50],100,
CN(Cc1ccc(Cl)nc1)CC(C)(C)Cc1cc(Cl)cc(Cl)c1 [Compound I-34],100,
"CC(CC1CCC(C(C)(C)C)CC1)CN(C)Cc1ccc(Cl)nc1 (stereo not shown) [Compound I-62, N-[3-(4-t-butylcyclohexyl)-2-methylpropyl]-6-chloro-N-methyl-3-pyridylmethylamine]",100,100
CN(Cc1ccc(Cl)nc1)CC(C)(C)Cc1ccc(F)c(Oc2ccccc2)c1 [Compound I-38],100,
CN(Cc1ccc(Cl)nc1)CC(C)(C)CC1CCC(C(C)(C)C)CC1 (stereo not shown) [Compound I-63],100,
CC(CCc1cccc(Oc2ccccc2)c1)CN(C)Cc1ccc(Cl)nc1 (stereo not shown) [Compound I-54],100,
CN(Cc1ccc(Cl)nc1)CC(C)(C)Cc1ccc(Oc2ccccc2)cc1 [Compound I-35],100,
CC(CCC1CCC(C(C)(C)C)CC1)CN(C)Cc1ccc(Cl)nc1 (stereo not shown) [Compound I-64],100,
CN(Cc1ccc(Cl)nc1)CC(C)(C)Cc1ccc(C(C)(C)C)cc1 [Compound I-25],100,
Cc1ccc(Oc2cccc(CC(C)(C)CN(C)Cc3ccc(Cl)nc3)c2)cc1 [Compound I-39],100,
CN(Cc1ccc(Cl)nc1)CC(C)(C)Cc1cccc(Cl)c1 [Compound I-29],100,
CN(Cc1ccc(Cl)nc1)CC(C)(C)Cc1cccc(OC(F)(F)C(F)F)c1 [Compound I-48],100,
CN(Cc1ccc(Cl)nc1)CC(C)(C)Cc1cccc(Oc2ccccc2)c1 [Compound I-36],100,
CC(CCCc1ccc(C(C)(C)C)cc1)CN(C)Cc1ccc(Cl)nc1 (stereo not shown) [Compound I-52],100,
CN(Cc1ccc(Cl)nc1)CC(C)(C)Cc1ccc(Cl)c(Cl)c1 [Compound I-33],100,
CN(Cc1ccc(Cl)nc1)CC(C)(C)Cc1cccc(Oc2cccc(C(F)(F)F)c2)c1 [Compound I-40],100,
CN(Cc1ccc(Cl)nc1)CC(C)(C)Cc1ccc(Cl)cc1 [Compound I-28],100,100
